These results are taken from US20030083239A1, “Chemokine receptor CCR3 antagonists” (priority 1999, published 2003).

Like-named read-outs stand apart in the source and are kept apart here. Ends that are not written are not given here. Peptide text beside a SMILES is read from it.

The test system of data set [1] is human eosinophils. The class given is cell-based. The protocol:
Human eosinophils were prepared by isolation from the blood of donor individuals with high levels of circulating blood eosinophils (5-17%) by combining density gradient centrifugation and negative selection with anti-CD16 magnetic beads. Briefly, the granulocyte fraction from the Percoll centrifugation was incubated with CD16 micro beads (miniMACS™, separation unit) for 30 minutes. Cells were then passed through a MACS™ column (Miltenyi Biotec, Inc., Auburn, Calif.) and eosinophils were collected in the flow through. Eosinophil purity was >98% as determined by analysis of Diff-Quik™ (Baxter) stained cytocentrifugation preparations by light microscopy. Intracellular free calcium was measured using the fluorescent probe Fluo-3. Cell suspensions (10^7 cells/ml) were loaded with Fluo-3/AM (1 μM, 30 minutes at 37° C), washed, resuspended at 2×10^6 cells/ml in Hanks' balanced salt solution (HBSS) and their fluorescence monitored in a spectrofluorometer (SLM 8000, SLM-Aminco, Champagne, Ill., USA) (excitation and emission wavelengths, 500 and 530 nm, respectively) The internal calcium concentrations were calculated as described in Tsien et al. (J. Cell. Biol. 94: 3325-3334, 1982). Each assay was individually calibrated.

The subject of data set [2] is human eosinophils. In kind it is cell-based. As for the experimental part: Human eosinophils were prepared by isolation from the blood of donor individuals with high levels of circulating blood eosinophils (5-17%) by combining density gradient centrifugation and negative selection with anti-CD16 magnetic beads. Briefly, the granulocyte fraction from the Percoll centrifugation was incubated with CD16 micro beads (miniMACS™, separation unit) for 30 minutes. Cells were then passed through a MACS™ column (Miltenyi Biotec, Inc., Auburn, Calif.) and eosinophils were collected in the flow through. Eosinophil purity was >98% as determined by analysis of Diff-Quik™ (Baxter) stained cytocentrifugation preparations by light microscopy. Leukocyte chemotaxis was assessed on eosinophils, using a modification of a transendothelial assay. The endothelial cells used in this assay were the endothelial cell line, ECV 304, obtained from the European collection of Animal Cell Cultures (Porton Downs, Salisbury, U.K.). Endothelial cells were cultured on 6.5 mm diameter Transwell™ culture inserts (Costar Corp., Cambridge, Mass.) with 3.0 μm pore size. The assay media consisted of equal parts RPMI 1640 and M199 with 0.5% BSA. […] The cells that had migrated to the bottom chamber were counted using flow cytometry. […] Inhibitor potency was determined by comparison of cell numbers migrated to the bottom chamber, with or without inhibitor. […]
The source holds these as a separate data set.

The next data set concerns the target T1, CCR3 (Homo sapiens, UniProt P51677).
T1 construct: expressed in transfected cells; host or cells: 293 cells
T1 sequence (P51677 1-355): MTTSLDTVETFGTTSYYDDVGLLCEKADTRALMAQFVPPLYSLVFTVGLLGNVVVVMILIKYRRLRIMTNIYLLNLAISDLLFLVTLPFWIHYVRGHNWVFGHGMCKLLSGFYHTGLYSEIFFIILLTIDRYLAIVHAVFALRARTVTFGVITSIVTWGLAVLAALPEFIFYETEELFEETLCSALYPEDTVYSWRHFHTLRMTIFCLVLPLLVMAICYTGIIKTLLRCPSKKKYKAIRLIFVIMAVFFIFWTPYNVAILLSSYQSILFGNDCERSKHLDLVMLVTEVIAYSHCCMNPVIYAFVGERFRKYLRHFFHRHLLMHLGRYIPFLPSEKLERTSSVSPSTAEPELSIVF
Description: Binding specificity, CCR3 transfected in 293 cells. The note with it: CCR3 transfected 293 cells; peptide at 10 μM (FIG. 4 legend). As for the experimental part: (§1) Chemokine binding to the target cells, human eosinophils and 293/CCR3 cells, was carried out using a modification of a method previously reported. Cells were washed once in PBS and resuspended in binding buffer (50 mM HEPES, 1 mM CaCl2, 5 mM MgCl2, and 0.5% BSA) at a concentration of 1×10^7/mL. Aliquots of 50 μL (5×10^5 cells) were dispensed into microfuge tubes, followed by the addition of cold and radiolabeled chemokines. The final reaction volume was 200 μL. Nonspecific binding was determined by incubating cells with radiolabeled chemokines in the presence of increasing amounts of (250-500 nM) of cold chemokine. After 60-min incubation, at room temperature, the cells were washed three times with 1 ml of binding buffer plus 0.5 M NaCl. Cell pellets were then counted. All experiments were carried out using duplicates and repeated at least three times. Curve fit was calculated by Kaleidagraph™ software (Synergy Software, Reading, Pa.). Inhibition of binding was assessed by the addition of test inhibitor compound at the indicated concentrations, and incubation for 30 min prior to addition of the chemokine as above.
(§2) The compound was used in the binding assay to compete with CXCR4, CXCR2, CCR2, and CCR3 transfected in 293 cells. […] The data are representative of three independent experiments.

Another data set concerns the target T2, CCR2 (Homo sapiens, UniProt P41597).
T2 construct: expressed in transfected cells; host or cells: 293 cells
Put plainly: Binding specificity, CCR2 transfected in 293 cells. The note with it: CCR2 transfected 293 cells; peptide at 10 μM (FIG. 4 legend). The protocol: as §1, §2

The target in a further data set is T3, CXCR2 (Homo sapiens, UniProt P25025).
T3 construct: expressed in transfected cells; host or cells: 293 cells
T3 sequence (P25025 1-360): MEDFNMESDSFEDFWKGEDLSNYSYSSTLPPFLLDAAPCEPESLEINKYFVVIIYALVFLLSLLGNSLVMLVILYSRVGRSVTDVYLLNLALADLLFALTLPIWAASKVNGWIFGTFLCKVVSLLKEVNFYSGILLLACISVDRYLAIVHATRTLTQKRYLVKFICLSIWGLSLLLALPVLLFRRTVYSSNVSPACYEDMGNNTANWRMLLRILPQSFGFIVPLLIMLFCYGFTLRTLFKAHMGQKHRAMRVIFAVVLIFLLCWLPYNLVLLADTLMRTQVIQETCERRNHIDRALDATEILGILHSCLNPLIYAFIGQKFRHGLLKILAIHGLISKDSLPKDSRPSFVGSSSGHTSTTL
Description: Binding specificity, CXCR2 transfected in 293 cells. The note with it: CXCR2 transfected 293 cells; peptide at 10 μM (FIG. 4 legend). The protocol: as §1, §2

The target of a further data set is T4, CXCR4 (Homo sapiens, UniProt P61073).
T4 construct: expressed in transfected cells; host or cells: 293 cells
Description: Binding specificity, CXCR4 transfected in 293 cells. The note with it: CXCR4 transfected 293 cells; peptide at 10 μM (FIG. 4 legend). As for the experimental part:
as §1, §2

Data set [3] concerns human eosinophils. Description: Cytotoxicity, lysis of 51Cr-labeled cells. The class given is cell-based. The note with it: cells cultured in presence of the peptide. As for the experimental part:
To exclude the possible contribution of cytotoxicity of the hexapeptides to the inhibition of eosinophil function, ^51Cr-labeled cells were cultured in presence of the peptide for the indicated time.

Data set [4] deals with human eosinophils. In kind it is cell-based. The source holds these as a separate data set.
Data set [5] has as its system human eosinophils. Put plainly: Cell viability by MTT incorporation. The note with it: after 24 hours. In kind it is cell-based. The protocol: In FIG. 5, cell viability in presence of SC004411 was assayed with MTT incorporation. […] The data are representative of three independent experiments.
The target in data set [6] is T5, CCR3 on human eosinophils (human, UniProt P51677 1-355).
T5 sequence (looked up): T1 sequence (P51677 1-355)
Put plainly: cell-based or functional assay.

The target in data set [7] is T5, CCR3 on human eosinophils. Description: competition with 125I-eotaxin (0.3 nM) for CCR3 on human eosinophils, filtration radioligand assay.

T4 sequence (P61073 whole entry, species assumed): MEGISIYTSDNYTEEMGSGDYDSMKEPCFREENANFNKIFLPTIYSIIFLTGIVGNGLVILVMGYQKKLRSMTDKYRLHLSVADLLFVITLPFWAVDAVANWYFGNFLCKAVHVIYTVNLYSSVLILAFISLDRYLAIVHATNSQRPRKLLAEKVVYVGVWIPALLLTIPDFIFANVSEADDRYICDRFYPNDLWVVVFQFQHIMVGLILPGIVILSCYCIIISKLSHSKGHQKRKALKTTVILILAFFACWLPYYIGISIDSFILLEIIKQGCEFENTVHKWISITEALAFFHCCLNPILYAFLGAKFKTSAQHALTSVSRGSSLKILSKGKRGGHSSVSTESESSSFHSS
T2 sequence (P41597 whole entry, species assumed): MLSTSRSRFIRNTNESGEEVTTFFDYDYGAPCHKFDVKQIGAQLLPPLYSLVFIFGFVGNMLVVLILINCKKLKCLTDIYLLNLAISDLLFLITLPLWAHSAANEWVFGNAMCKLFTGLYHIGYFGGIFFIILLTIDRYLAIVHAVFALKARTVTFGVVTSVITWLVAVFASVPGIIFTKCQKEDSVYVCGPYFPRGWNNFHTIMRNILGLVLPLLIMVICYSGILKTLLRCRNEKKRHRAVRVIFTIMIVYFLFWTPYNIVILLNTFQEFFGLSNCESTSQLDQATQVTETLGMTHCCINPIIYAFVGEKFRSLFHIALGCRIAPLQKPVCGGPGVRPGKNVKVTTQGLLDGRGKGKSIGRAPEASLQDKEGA

As usually defined, the IC50 is the point on the concentration scale where inhibition reaches its midpoint. Low values mean higher potency, high ones lower potency. Regarding `CC(=O)N[C@@H](CS)C(=O)N[C@@H](CCCNC(=N)N)C(=O)N[C@@H](CS)C(=O)N[C@@H](C)C(=O)N[C@@H](C)C(=O)N[C@@H](CCCNC(=N)N)C(N)=O` [SC004411, CRCAAR] (Ac-CRCAAR-NH2; N-terminus and C-terminus assumed), the IC50 in the data set with human eosinophils [1] was approximately 40 µM; with human eosinophils [2], approximately 20 µM. The “inhibition of eotaxin-binding to CCR3” value at CCR3 is “specifically inhibited”. Besides, the “inhibition of binding to CCR2” value on CCR2 is “not”. On CXCR2, the “inhibition of binding to CXCR2” value is reported as “not”. For the same molecule, at CXCR4, the “inhibition of binding to CXCR4” value was “not”. The “cell lysis of 51Cr-labeled human eosinophils” value in the data set on human eosinophils [3] is given as “did not cause cell lysis”. For the same molecule, in the data set on human eosinophils [4], the “toxicity by Trypan Blue exclusion” value is listed as “not toxic”. Moreover, in the data set with human eosinophils [5], the “concentration at which the compound starts to be toxic (MTT viability)” value is on record as “above 100 μM”.

B1: hexamer peptide CRCAAR (SEQ ID NO: 1), peptide SC004411 (peptide)
peptide: CRCAAR
modifications: not fully specified; cysteine pairing not given here
notes: Synthetic hexapeptide; also called compound SC004411
On to B1, for which, in [6], the “inhibition of eotaxin-induced calcium mobilization of human eosinophils (functional IC50)” value was approximately 40 µM and the “inhibition of eotaxin-induced chemotaxis of human eosinophils (functional IC50)” value is approximately 20 µM. The molecule further yielded a half-maximal inhibitory concentration (IC50) in data set [7] of approximately 40 µM.
